Columns and labels:
Assay type in all cases: biochemical
Human PI3K alpha = biological target: T1, Human PI3K alpha (Homo sapiens, UniProt P42336); experiment: Human PI3K alpha enzyme assay (HTRF); details: concentration not given, b1387 states 1.1 μM for PI3K α and β; for inhibition at 1.1 µM: read-out: p110 alpha Percent Inhibition
T1 construct: His (N); host or cells: SF9 insect cells (baculovirus)

Human PI3K beta = biological target: T2, Human PI3K beta (Homo sapiens, UniProt P42338); experiment: Human PI3K beta enzyme assay (HTRF); details: concentration not given, b1387 states 1.1 μM for PI3K α and β; for inhibition at 1.1 µM: read-out: p110 beta Percent Inhibition
T2 construct: His (N); host or cells: SF9 insect cells (baculovirus)
T2 sequence (P42338 whole entry): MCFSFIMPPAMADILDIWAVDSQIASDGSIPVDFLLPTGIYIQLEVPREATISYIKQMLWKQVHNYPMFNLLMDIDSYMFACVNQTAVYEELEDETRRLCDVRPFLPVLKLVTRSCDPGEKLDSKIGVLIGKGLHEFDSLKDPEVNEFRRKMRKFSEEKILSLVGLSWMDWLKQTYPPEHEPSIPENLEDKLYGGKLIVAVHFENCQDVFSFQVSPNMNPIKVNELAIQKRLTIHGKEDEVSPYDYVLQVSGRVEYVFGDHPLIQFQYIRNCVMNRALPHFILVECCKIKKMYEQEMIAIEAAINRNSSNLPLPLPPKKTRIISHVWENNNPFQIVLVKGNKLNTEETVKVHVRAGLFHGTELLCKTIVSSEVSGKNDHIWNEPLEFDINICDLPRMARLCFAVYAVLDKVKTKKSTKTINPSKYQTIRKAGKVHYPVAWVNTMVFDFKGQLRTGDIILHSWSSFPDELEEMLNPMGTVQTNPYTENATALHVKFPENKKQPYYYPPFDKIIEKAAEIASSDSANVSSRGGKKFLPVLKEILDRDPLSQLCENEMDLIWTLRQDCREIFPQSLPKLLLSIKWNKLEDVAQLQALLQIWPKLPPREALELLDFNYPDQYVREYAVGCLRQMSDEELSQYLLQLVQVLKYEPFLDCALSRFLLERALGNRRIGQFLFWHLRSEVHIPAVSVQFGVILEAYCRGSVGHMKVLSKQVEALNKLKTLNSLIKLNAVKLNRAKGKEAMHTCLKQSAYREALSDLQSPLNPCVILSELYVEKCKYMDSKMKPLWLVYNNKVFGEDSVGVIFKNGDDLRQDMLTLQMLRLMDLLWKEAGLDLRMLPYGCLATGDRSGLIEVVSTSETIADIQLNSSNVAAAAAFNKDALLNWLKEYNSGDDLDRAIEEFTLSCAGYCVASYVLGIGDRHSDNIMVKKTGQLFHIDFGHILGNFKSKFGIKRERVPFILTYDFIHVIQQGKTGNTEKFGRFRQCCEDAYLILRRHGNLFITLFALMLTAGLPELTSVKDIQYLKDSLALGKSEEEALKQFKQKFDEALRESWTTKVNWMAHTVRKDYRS
T2 sequence (P27986 whole entry partner): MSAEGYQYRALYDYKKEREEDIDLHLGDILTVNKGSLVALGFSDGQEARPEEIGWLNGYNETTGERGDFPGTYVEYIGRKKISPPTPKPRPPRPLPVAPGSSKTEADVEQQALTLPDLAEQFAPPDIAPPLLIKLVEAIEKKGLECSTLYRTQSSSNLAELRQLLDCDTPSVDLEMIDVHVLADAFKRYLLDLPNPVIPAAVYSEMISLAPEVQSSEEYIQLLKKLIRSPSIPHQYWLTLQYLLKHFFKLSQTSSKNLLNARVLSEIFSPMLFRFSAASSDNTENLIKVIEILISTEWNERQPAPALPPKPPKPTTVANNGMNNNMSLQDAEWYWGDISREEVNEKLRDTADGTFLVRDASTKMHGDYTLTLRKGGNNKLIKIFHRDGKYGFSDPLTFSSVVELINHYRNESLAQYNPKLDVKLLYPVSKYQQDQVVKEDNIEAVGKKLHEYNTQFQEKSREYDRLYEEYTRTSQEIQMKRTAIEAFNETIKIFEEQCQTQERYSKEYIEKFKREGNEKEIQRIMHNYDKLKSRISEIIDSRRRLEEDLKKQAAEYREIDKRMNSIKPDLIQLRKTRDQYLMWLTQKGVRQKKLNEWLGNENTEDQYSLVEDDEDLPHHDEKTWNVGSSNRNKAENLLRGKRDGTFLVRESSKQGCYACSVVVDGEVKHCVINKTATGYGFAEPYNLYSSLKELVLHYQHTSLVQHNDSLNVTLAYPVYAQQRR
Summary of the method: (§1)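 Compounds were mixed with 25 uM ATP, then with 3.5 uM di-C8 PI(4,5)P2 and His-tagged PI3K isoform (β 5.25 nM, δ 0.75 nM, γ 5 nM) at pH 7.00. After 30 min at room temperature, EDTA stopped the reaction and PIP3 was measured by HTRF over 1 h.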

Human PI3K delta = biological target: T3, Human PI3K delta (Homo sapiens, UniProt O00329); experiment: Human PI3K delta enzyme assay (HTRF); details: concentration not given, b1389 states 1.0 μM for PI3K δ and γ; for inhibition at 1 µM: read-out: p110 delta Percent Inhibition
T3 construct: His (N); host or cells: SF9 insect cells (baculovirus)
T3 sequence (O00329 whole entry): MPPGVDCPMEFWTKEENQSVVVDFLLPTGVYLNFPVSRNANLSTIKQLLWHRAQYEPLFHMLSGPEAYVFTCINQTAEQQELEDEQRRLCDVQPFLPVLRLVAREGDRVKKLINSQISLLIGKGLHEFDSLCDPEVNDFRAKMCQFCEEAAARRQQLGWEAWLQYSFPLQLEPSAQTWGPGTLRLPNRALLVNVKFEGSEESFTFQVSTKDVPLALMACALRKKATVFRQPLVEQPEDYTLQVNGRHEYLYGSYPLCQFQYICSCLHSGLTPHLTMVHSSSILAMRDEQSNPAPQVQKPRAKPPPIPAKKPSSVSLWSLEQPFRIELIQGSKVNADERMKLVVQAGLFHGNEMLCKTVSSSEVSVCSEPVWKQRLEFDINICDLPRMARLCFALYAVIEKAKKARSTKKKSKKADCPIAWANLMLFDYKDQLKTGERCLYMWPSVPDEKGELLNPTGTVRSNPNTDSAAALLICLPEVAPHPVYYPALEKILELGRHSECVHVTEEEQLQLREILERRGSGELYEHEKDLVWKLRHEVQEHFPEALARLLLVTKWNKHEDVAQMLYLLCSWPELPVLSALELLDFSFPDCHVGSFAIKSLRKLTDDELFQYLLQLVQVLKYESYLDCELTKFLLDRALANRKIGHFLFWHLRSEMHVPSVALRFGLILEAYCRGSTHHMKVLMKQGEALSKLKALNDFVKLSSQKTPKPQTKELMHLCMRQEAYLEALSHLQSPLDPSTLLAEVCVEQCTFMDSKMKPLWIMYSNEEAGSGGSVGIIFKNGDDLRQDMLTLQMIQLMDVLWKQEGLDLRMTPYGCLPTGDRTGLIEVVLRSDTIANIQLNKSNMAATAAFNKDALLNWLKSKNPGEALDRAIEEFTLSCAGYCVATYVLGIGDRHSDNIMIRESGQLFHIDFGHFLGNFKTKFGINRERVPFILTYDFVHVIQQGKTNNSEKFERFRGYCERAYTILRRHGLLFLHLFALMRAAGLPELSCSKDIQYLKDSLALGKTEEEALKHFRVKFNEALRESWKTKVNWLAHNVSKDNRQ
T3 sequence (P27986 whole entry partner): as the sequence (P27986 whole entry partner) above
Summary of the method: as §1

Human PI3K gamma = biological target: T4, Human PI3K gamma (Homo sapiens, UniProt P48736); experiment: Human PI3K gamma enzyme assay (HTRF); details: concentration not given, b1389 states 1.0 μM for PI3K δ and γ; for inhibition at 1 µM: read-out: p110 gamma Percent Inhibition
T4 construct: His (N); host or cells: SF9 insect cells (baculovirus)
T4 sequence (P48736 whole entry): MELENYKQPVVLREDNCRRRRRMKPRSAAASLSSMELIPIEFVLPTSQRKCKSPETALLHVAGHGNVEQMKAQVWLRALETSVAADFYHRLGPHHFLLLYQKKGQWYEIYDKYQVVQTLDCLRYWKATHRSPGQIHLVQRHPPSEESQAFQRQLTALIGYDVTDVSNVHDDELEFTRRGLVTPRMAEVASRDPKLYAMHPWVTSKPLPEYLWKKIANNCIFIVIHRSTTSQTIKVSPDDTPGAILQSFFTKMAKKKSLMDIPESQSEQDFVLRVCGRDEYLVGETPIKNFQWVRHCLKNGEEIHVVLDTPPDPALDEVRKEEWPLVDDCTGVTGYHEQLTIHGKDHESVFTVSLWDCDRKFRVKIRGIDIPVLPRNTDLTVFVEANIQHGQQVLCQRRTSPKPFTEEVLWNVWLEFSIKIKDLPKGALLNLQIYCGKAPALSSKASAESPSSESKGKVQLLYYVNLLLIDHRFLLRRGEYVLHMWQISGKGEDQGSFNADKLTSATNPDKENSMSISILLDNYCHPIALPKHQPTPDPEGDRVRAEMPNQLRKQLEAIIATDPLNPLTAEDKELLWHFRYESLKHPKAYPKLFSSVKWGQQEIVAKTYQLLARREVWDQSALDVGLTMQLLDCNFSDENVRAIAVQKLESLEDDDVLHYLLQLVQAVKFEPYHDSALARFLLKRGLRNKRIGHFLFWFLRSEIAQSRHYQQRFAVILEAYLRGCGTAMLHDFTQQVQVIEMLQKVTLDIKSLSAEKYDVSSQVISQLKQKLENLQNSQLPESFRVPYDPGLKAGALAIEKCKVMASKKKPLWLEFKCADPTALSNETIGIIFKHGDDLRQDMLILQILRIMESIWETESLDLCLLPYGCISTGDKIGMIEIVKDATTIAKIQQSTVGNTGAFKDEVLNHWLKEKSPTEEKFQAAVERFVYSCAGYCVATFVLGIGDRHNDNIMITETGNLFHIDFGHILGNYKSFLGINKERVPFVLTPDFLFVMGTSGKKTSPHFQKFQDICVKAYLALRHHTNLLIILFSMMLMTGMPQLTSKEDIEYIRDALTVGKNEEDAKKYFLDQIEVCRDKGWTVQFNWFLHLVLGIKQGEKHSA
Summary of the method: as §1

T1 sequence (P42336 whole entry): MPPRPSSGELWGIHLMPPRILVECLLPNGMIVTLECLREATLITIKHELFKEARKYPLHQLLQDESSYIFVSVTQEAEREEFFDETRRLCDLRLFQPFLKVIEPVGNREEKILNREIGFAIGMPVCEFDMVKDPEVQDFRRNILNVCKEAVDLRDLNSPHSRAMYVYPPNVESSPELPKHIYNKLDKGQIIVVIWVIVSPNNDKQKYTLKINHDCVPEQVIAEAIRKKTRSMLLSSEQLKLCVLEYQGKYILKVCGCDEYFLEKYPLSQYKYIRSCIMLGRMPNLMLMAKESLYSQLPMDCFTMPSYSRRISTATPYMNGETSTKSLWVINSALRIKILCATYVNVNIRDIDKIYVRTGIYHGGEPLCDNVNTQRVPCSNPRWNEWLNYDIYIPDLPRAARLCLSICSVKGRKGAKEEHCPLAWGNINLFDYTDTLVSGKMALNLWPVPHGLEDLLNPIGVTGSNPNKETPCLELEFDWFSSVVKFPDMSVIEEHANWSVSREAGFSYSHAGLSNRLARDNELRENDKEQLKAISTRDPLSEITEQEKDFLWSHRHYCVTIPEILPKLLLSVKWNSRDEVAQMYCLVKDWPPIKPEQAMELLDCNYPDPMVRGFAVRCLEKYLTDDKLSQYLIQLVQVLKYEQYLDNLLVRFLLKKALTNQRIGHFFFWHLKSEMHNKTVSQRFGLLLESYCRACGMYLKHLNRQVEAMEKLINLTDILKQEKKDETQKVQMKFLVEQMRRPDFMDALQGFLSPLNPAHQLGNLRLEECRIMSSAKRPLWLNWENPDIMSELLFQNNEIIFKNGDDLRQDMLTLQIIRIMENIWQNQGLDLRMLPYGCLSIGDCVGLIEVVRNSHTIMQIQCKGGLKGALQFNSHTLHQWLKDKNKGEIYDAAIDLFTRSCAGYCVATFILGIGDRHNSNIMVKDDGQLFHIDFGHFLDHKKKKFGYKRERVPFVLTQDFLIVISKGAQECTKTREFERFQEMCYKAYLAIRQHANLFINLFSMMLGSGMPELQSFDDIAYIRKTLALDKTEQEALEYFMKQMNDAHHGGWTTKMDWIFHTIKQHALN
T1 sequence (P27986 whole entry partner): as the sequence (P27986 whole entry partner) above

SMILES | p110 alpha Percent Inhibition (Human PI3K alpha) | inhibition at 1.1 µM (Human PI3K beta) | inhibition at 1 µM (Human PI3K delta) | inhibition at 1 µM (Human PI3K gamma) | inhibition at 1.1 µM (Human PI3K alpha) | p110 beta Percent Inhibition (Human PI3K beta) | p110 delta Percent Inhibition (Human PI3K delta) | p110 gamma Percent Inhibition (Human PI3K gamma)
CC(c1ccc2cc(F)ccc2c1)c1c(C(=O)O)sc(N2CCOCC2)c1C#N (stereo not shown) [Compound 326] | 79% | 108% | 96% | 56% | – | – | – | –
N#Cc1c(N2CCOCC2)sc(C(N)=O)c1Cc1ccc2ccccc2c1 [Compound 327, 4-cyano-5-(morpholin-4-yl)-3-(2-naphthylmethyl)thiophene-2-carboxamide] | – | 109% | 109% | 22% | 34% | – | – | –
O=C(O)c1sc(N2CCOCC2)nc1Cc1ccc2cc[nH]c2c1 [Compound 328] | – | 98% | 83% | 48% | 11% | – | – | –
NS(=O)(=O)c1sc(N2CCOCC2)nc1Cc1ccc2ccccc2c1 [Compound 329, 2-morpholino-4-(naphthalen-2-ylmethyl)thiazole-5-sulfonamide] | – | 112% | 80% | 29% | 39% | – | – | –
Cn1c(Cc2c(C(=O)O)sc(N3CCOCC3)c2C#N)cc2ccccc21 [Compound 330] | – | 109% | 106% | 61% | 85% | – | – | –
CN(C)CCC(c1ccc(Cl)c(Cl)c1)c1c(C(=O)O)sc(N2CCOCC2)c1C#N (stereo not shown) [Compound 331, 4-cyano-3-[1-(3,4-dichlorophenyl)-3-(dimethylamino)propyl]-5-(morpholin-4-yl)thiophene-2-carboxylic acid] | – | 105% | 107% | 51% | 37% | – | – | –
CC(c1ccc(Cl)c(Cl)c1)c1nc(N2CCOCC2)sc1C(=O)O (stereo not shown) [Compound 332] | – | 77% | 91% | 27% | 11% | – | – | –
CC(c1ccc2ccccc2c1)c1c(C(=O)O)sc(N2CCOCC2)c1C#N (stereo not shown) [Compound 333] | – | 95% | 74% | 55% | 63% | – | – | –
NC(=O)c1sc(N2CCOCC2)nc1Cc1ccc2ccccc2c1 [Compound 334] | – | 103% | 101% | 12% | 21% | – | – | –
COc1ccc2ccc(Cc3nc(N4CCOCC4)sc3C(=O)O)cc2c1 [Compound 335] | – | 111% | 107% | 31% | 54% | – | – | –
CN(C)C(c1ccc(Cl)c(Cl)c1)c1c(C(=O)O)sc(N2CCOCC2)c1C#N (stereo not shown) [Compound 336] | 16% | – | – | – | – | 90% | 49% | 10%
O=C(O)c1sc(N2CCOCC2)nc1Cc1cc(F)c2ccccc2c1 [Compound 338] | – | 110% | 109% | 73% | 67% | – | – | –
O=C(O)c1sc(N2CCOCC2)nc1Cc1ccc2c(F)cccc2c1 [Compound 340] | – | 113% | 104% | 59% | 48% | – | – | –
O=C(O)c1sc(N2CCOCC2)nc1Cc1cc2ccccc2o1 [Compound 341] | – | 110% | 98% | 30% | 30% | – | – | –
CC(C)(C)[S+]([O-])NC(c1ccc(Cl)c(Cl)c1)c1c(C(=O)O)sc(N2CCOCC2)c1C#N (stereo not shown) [Compound 342] | – | 80% | 97% | 12% | 34% | – | – | –
O=C(O)c1sc(N2CCOCC2)nc1Cc1ccc2ccncc2c1 [Compound 344] | – | 103% | 102% | 59% | 24% | – | – | –
CC(c1ccc2ccccc2c1)c1nc(N2CCOCC2)sc1C(=O)O (stereo not shown) [Compound 346] | – | 98% | 98% | 23% | 21% | – | – | –
N#Cc1c(N2CCOCC2)sc(C(=O)O)c1C(CCO)c1ccc(Cl)c(Cl)c1 (stereo not shown) [Compound 347, 4-cyano-3-[1-(3,4-dichlorophenyl)-3-hydroxypropyl]-5-(morpholin-4-yl)thiophene-2-carboxylic acid] | – | 102% | 111% | 60% | 71% | – | – | –
O=C(O)Cc1sc(N2CCOCC2)nc1Cc1ccc(Cl)c(Cl)c1 [Compound 348, 2-(4-(3,4-dichlorobenzyl)-2-morpholinothiazol-5-yl)acetic acid] | – | 63% | 56% | 4% | 4% | – | – | –
